Legend:
PIK3CD (Human) = PIK3CD (Human) (UniProt O00329); experiment: Assessment of PIK3CD Kinase Activity
PIK3CA (human) = PIK3CA (human) (UniProt P42336); experiment: Assessment of PIK3CA Kinase Activity
PIK3CB (Human) = PIK3CB (Human) (UniProt P42338); experiment: Assessment of PIK3CB Kinase Activity
PIK3CG (human) = PIK3CG (human) (UniProt P48736); experiment: Assessment of PIK3CG Kinase Activity
PIK3CG (human), sequence (P48736 whole entry, looked up): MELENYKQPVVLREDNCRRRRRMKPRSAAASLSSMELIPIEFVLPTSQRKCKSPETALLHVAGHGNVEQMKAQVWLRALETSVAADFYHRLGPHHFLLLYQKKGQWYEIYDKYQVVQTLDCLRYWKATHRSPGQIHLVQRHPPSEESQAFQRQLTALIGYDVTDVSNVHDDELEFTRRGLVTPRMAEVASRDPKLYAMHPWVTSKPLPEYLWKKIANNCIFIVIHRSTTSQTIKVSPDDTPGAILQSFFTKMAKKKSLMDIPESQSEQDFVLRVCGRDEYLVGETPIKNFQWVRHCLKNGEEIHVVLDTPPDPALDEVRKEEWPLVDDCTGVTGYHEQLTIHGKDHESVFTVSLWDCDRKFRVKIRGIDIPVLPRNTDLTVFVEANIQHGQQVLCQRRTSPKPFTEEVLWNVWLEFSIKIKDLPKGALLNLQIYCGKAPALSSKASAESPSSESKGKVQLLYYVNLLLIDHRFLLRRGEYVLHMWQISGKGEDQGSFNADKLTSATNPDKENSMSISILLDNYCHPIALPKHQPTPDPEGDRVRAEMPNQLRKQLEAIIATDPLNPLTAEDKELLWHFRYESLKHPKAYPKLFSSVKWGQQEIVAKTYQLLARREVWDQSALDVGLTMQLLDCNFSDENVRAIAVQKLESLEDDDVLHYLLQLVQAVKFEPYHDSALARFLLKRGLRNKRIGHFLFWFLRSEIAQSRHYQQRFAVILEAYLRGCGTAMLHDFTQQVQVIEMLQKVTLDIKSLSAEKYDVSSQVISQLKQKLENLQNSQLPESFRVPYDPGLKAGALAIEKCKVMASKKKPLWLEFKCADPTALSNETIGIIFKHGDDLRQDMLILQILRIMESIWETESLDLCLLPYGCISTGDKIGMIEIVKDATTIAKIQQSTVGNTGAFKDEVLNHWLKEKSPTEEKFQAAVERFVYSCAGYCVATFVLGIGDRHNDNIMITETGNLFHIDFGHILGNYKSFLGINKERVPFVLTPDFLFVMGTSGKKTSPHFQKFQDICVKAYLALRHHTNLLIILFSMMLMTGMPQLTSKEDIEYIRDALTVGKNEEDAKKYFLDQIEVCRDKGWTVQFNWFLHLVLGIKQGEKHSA

PIK3CA (human), sequence (P42336 whole entry, looked up): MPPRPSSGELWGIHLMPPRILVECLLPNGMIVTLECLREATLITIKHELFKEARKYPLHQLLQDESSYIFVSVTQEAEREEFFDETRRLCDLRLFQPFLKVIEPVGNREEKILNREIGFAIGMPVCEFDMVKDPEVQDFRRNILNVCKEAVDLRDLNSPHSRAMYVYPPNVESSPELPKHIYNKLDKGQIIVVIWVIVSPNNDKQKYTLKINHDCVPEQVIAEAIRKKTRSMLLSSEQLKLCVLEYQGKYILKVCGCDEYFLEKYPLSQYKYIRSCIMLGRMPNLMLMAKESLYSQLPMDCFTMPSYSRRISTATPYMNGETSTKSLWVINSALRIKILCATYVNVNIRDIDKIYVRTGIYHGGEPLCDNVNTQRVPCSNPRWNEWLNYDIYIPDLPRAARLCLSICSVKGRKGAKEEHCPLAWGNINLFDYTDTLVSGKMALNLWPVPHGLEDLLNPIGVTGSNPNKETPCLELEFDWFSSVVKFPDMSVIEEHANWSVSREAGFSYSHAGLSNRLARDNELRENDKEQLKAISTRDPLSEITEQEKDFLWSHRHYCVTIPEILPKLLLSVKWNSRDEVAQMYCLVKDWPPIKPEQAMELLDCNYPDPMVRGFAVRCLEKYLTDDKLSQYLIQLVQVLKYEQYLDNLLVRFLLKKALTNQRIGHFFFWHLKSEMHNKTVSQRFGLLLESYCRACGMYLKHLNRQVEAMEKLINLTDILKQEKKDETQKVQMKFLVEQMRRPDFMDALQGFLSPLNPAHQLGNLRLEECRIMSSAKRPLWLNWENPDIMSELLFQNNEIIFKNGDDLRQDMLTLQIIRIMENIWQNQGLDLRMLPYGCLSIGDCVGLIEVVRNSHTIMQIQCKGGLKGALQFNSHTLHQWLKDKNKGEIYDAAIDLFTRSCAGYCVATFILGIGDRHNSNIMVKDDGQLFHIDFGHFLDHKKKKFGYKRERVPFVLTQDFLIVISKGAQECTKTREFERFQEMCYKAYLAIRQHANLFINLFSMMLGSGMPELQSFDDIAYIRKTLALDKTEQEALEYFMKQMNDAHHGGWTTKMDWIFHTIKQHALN
PIK3CD (Human), sequence (O00329 whole entry, looked up): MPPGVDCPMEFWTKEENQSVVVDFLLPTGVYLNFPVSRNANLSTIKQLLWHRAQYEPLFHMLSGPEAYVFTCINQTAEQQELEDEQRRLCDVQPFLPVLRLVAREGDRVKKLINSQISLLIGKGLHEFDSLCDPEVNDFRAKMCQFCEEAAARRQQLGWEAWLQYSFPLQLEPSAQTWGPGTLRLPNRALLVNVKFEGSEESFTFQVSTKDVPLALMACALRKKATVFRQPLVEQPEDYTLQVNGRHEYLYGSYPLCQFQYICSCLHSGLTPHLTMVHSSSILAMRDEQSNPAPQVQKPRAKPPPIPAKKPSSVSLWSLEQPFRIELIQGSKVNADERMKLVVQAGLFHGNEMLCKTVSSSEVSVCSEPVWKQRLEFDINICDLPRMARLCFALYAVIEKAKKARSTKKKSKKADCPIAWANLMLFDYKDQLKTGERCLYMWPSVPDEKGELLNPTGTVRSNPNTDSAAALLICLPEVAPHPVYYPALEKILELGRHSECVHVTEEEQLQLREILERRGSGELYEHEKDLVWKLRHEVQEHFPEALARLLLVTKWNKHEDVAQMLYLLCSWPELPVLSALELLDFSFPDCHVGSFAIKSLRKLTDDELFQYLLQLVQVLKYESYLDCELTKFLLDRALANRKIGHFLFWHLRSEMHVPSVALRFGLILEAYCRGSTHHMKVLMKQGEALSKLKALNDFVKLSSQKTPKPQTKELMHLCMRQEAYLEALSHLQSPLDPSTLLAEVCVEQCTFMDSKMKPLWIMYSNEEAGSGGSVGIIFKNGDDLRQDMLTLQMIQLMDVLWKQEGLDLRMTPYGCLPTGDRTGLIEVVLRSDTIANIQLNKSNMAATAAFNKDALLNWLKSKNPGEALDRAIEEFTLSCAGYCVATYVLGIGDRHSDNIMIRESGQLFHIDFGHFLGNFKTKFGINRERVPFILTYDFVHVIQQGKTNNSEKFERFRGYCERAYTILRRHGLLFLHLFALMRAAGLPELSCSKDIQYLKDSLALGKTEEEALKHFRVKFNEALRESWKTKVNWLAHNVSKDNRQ
PIK3CB (Human), sequence (P42338 whole entry, looked up): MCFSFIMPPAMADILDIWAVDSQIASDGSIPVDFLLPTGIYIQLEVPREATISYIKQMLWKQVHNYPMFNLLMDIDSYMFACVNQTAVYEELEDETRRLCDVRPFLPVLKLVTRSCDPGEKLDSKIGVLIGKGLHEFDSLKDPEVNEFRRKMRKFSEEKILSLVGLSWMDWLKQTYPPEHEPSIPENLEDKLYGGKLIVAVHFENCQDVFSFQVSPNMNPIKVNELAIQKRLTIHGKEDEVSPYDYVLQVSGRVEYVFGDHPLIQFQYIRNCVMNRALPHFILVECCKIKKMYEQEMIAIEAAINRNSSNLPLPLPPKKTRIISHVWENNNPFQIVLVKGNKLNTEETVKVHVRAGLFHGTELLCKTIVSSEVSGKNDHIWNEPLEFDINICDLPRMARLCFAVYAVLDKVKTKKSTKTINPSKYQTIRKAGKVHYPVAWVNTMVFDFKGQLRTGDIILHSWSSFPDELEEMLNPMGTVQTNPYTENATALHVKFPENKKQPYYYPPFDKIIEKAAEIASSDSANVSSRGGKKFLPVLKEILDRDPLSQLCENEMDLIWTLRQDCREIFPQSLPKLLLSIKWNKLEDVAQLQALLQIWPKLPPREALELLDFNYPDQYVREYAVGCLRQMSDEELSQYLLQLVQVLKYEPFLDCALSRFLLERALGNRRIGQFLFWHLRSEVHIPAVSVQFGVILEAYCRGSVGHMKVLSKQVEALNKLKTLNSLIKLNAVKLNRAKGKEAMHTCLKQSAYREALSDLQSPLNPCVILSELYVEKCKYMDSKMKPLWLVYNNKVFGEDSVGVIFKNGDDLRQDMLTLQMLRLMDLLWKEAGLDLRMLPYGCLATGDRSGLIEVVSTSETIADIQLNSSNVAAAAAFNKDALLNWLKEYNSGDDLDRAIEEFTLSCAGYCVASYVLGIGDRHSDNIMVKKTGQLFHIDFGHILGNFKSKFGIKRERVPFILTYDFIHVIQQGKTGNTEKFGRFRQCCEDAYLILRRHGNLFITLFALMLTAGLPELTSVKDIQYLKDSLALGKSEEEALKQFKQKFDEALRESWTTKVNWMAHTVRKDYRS

With `CC(C)(O)c1cc2nc(-c3cccc4[nH]ncc34)nc(N3CCOCC3)c2s1` the IC50 (PIK3CD (Human)) was > 100 nM, the IC50 (PIK3CA (human)) was < 1000 nM and the IC50 (PIK3CB (Human)) was < 100 nM. For the same molecule, the IC50 (PIK3CG (human)) was < 100 nM.
With `O=C(NCCN1CCCCC1)c1cc2nc(-c3cccc4[nH]ncc34)nc(N3CCOCC3)c2s1` the IC50 (PIK3CD (Human)) was > 100 nM, the IC50 (PIK3CA (human)) was < 1000 nM and the IC50 (PIK3CB (Human)) was > 100 nM. The IC50 (PIK3CG (human)) was < 100 nM.
In the case of `CN(C)Cc1cc2nc(-c3cccc4[nH]ncc34)nc(N3CCOCC3)c2s1`, the IC50 (PIK3CD (Human)) is reported as > 100 nM, the IC50 (PIK3CA (human)) is reported as < 1000 nM and the IC50 (PIK3CB (Human)) is reported as < 100 nM. For the same molecule, the IC50 (PIK3CG (human)) was < 100 nM.
With `C[C@H](O)CNC(=O)c1cccc(-c2cc3nc(-c4cccc5[nH]ncc45)nc(N4CCOCC4)c3s2)c1` the IC50 (PIK3CD (Human)) was > 100 nM, the IC50 (PIK3CA (human)) was < 1000 nM and the IC50 (PIK3CB (Human)) was < 100 nM. The IC50 (PIK3CG (human)) was < 100 nM.
For `C[C@H](O)CNCc1cc2nc(-c3cccc4[nH]ncc34)nc(N3CCOCC3)c2s1`, the IC50 (PIK3CD (Human)) was > 100 nM, the IC50 (PIK3CA (human)) was < 1000 nM and the IC50 (PIK3CB (Human)) was > 100 nM. For the same molecule, the IC50 (PIK3CG (human)) was < 100 nM.
For `CCNC(=O)c1cc2nc(-c3cccc4[nH]ncc34)nc(N3CCOCC3)c2s1`, the IC50 (PIK3CD (Human)) was > 100 nM, the IC50 (PIK3CA (human)) was < 1000 nM and the IC50 (PIK3CB (Human)) was > 100 nM. The IC50 (PIK3CG (human)) was > 100 nM.
For `CC(=O)Nc1cccc(-c2cc3nc(-c4cccc5[nH]ncc45)nc(N4CCOCC4)c3s2)c1`, the IC50 (PIK3CD (Human)) was > 100 nM, the IC50 (PIK3CA (human)) was < 1000 nM and the IC50 (PIK3CB (Human)) was < 100 nM. For the same molecule, the IC50 (PIK3CG (human)) was < 100 nM.
For `Cc1c(-c2cccc(S(C)(=O)=O)c2)sc2c(N3CCOCC3)nc(-c3cnc4[nH]ccc4c3)nc12`, the IC50 (PIK3CD (Human)) was < 100 nM, the IC50 (PIK3CA (human)) was < 1000 nM and the IC50 (PIK3CB (Human)) was < 100 nM. For the same molecule, the IC50 (PIK3CG (human)) was < 100 nM.
For `CN(C)C(=O)c1cc2nc(-c3cccc4[nH]ncc34)nc(N3CCOCC3)c2s1`, the IC50 (PIK3CD (Human)) was > 100 nM, the IC50 (PIK3CA (human)) was < 1000 nM and the IC50 (PIK3CB (Human)) was > 100 nM. The IC50 (PIK3CG (human)) was < 100 nM.
With `O=C(O)c1cccc(-c2cc3nc(-c4cccc5[nH]ncc45)nc(N4CCOCC4)c3s2)c1` the IC50 (PIK3CD (Human)) was > 100 nM, the IC50 (PIK3CA (human)) was < 1000 nM and the IC50 (PIK3CB (Human)) was < 100 nM. The IC50 (PIK3CG (human)) was < 100 nM.
With `c1cc(-c2nc(N3CCOCC3)c3sc(Cn4ccnc4)cc3n2)c2cn[nH]c2c1` the IC50 (PIK3CD (Human)) was > 100 nM, the IC50 (PIK3CA (human)) was < 1000 nM and the IC50 (PIK3CB (Human)) was > 100 nM. For the same molecule, the IC50 (PIK3CG (human)) was < 100 nM.
In the case of `O=S(=O)(NCCN1CCCCC1)c1cc2nc(-c3cccc4[nH]ncc34)nc(N3CCOCC3)c2s1`, the IC50 (PIK3CD (Human)) is reported as > 100 nM, the IC50 (PIK3CA (human)) is reported as < 1000 nM and the IC50 (PIK3CB (Human)) is reported as < 100 nM. The IC50 (PIK3CG (human)) was < 100 nM.
For `Cc1c(-c2cccc(S(C)(=O)=O)c2)sc2c(N3CCOCC3)nc(-c3cccc4[nH]ncc34)nc12`, the IC50 (PIK3CD (Human)) was < 100 nM, the IC50 (PIK3CA (human)) was < 1000 nM and the IC50 (PIK3CB (Human)) was < 100 nM. For the same molecule, the IC50 (PIK3CG (human)) was < 100 nM.
With `COC/C=C/c1cc2nc(-c3cccc4[nH]ncc34)nc(N3CCOCC3)c2s1` the IC50 (PIK3CD (Human)) was > 100 nM, the IC50 (PIK3CA (human)) was < 1000 nM and the IC50 (PIK3CB (Human)) was < 100 nM. For the same molecule, the IC50 (PIK3CG (human)) was < 100 nM.
For `c1cc(-c2nc(N3CCOCC3)c3sc(-c4cn[nH]c4)cc3n2)c2cn[nH]c2c1`, the IC50 (PIK3CD (Human)) was > 100 nM, the IC50 (PIK3CA (human)) was < 1000 nM and the IC50 (PIK3CB (Human)) was > 100 nM. The IC50 (PIK3CG (human)) was < 100 nM.
In the case of `CN(Cc1cc2nc(-c3cccc4[nH]ncc34)nc(N3CCOCC3)c2s1)C(=O)c1ccccc1`, the IC50 (PIK3CD (Human)) is reported as > 100 nM, the IC50 (PIK3CA (human)) is reported as < 1000 nM and the IC50 (PIK3CB (Human)) is reported as > 100 nM. For the same molecule, the IC50 (PIK3CG (human)) was > 100 nM.
For `CS(=O)(=O)c1cccc(-c2cc3nc(-c4cccc5[nH]ncc45)nc(N4CCOCC4)c3s2)c1`, the IC50 (PIK3CD (Human)) was > 100 nM, the IC50 (PIK3CA (human)) was < 1000 nM and the IC50 (PIK3CB (Human)) was < 100 nM. The IC50 (PIK3CG (human)) was < 100 nM.
For `OCc1cccc(-c2cc3nc(-c4cccc5[nH]ncc45)nc(N4CCOCC4)c3s2)c1`, the IC50 (PIK3CD (Human)) was > 100 nM, the IC50 (PIK3CA (human)) was < 1000 nM and the IC50 (PIK3CB (Human)) was < 100 nM. For the same molecule, the IC50 (PIK3CG (human)) was < 100 nM.
With `CS(=O)(=O)N1CCC(C(O)c2cc3nc(-c4cccc5[nH]ncc45)nc(N4CCOCC4)c3s2)CC1` (centres undefined) the IC50 (PIK3CD (Human)) was > 100 nM, the IC50 (PIK3CA (human)) was < 1000 nM and the IC50 (PIK3CB (Human)) was > 100 nM. For the same molecule, the IC50 (PIK3CG (human)) was < 100 nM.
`CS(=O)(=O)c1cccc(C(=O)NCc2cc3nc(-c4cccc5[nH]ncc45)nc(N4CCOCC4)c3s2)c1` was tested, and the IC50 (PIK3CD (Human)) was > 100 nM, the IC50 (PIK3CA (human)) was < 1000 nM and the IC50 (PIK3CB (Human)) was < 100 nM. For the same molecule, the IC50 (PIK3CG (human)) was < 100 nM.
In the case of `CC(C)(O)c1cc2nc(-c3cnc4[nH]ccc4c3)nc(N3CCOCC3)c2s1`, the IC50 (PIK3CD (Human)) is reported as > 100 nM, the IC50 (PIK3CA (human)) is reported as < 1000 nM and the IC50 (PIK3CB (Human)) is reported as < 100 nM. The IC50 (PIK3CG (human)) was < 100 nM.
In the case of `CC(C)(O)c1cc2nc(-c3cccc4[nH]ccc34)nc(N3CCOCC3)c2s1`, the IC50 (PIK3CD (Human)) is reported as > 100 nM, the IC50 (PIK3CA (human)) is reported as < 1000 nM and the IC50 (PIK3CB (Human)) is reported as < 100 nM. For the same molecule, the IC50 (PIK3CG (human)) was < 100 nM.
In the case of `O=C(NCc1cc2nc(-c3cccc4[nH]ncc34)nc(N3CCOCC3)c2s1)N1CCOCC1`, the IC50 (PIK3CD (Human)) is reported as > 100 nM, the IC50 (PIK3CA (human)) is reported as < 1000 nM and the IC50 (PIK3CB (Human)) is reported as > 100 nM. The IC50 (PIK3CG (human)) was < 100 nM.
In the case of `CNC(=O)c1cccc(-c2cc3nc(-c4cccc5[nH]ncc45)nc(N4CCOCC4)c3s2)c1`, the IC50 (PIK3CD (Human)) is reported as > 100 nM, the IC50 (PIK3CA (human)) is reported as < 1000 nM and the IC50 (PIK3CB (Human)) is reported as < 100 nM. The IC50 (PIK3CG (human)) was < 100 nM.
In the case of `COc1ccc(NCc2cc3nc(-c4cccc5[nH]ncc45)nc(N4CCOCC4)c3s2)cn1`, the IC50 (PIK3CD (Human)) is reported as > 100 nM, the IC50 (PIK3CA (human)) is reported as < 1000 nM and the IC50 (PIK3CB (Human)) is reported as > 100 nM. The IC50 (PIK3CG (human)) was < 100 nM.
With `OCCNc1cc2nc(-c3cccc4[nH]ncc34)nc(N3CCOCC3)c2s1` the IC50 (PIK3CD (Human)) was > 100 nM, the IC50 (PIK3CA (human)) was < 1000 nM and the IC50 (PIK3CB (Human)) was > 100 nM. The IC50 (PIK3CG (human)) was < 100 nM.
For `CS(=O)(=O)c1cccc(-c2cc3nc(-c4cnc5[nH]ccc5c4)nc(N4CCOCC4)c3s2)c1`, the IC50 (PIK3CD (Human)) was < 100 nM, the IC50 (PIK3CA (human)) was < 1000 nM and the IC50 (PIK3CB (Human)) was < 100 nM. For the same molecule, the IC50 (PIK3CG (human)) was < 100 nM.
`CN(Cc1cc2c(N3CCOCC3)nc(-c3cnc4[nH]ccc4c3)nc2s1)S(C)(=O)=O` was tested, and the IC50 (PIK3CD (Human)) was < 100 nM, the IC50 (PIK3CA (human)) was < 1000 nM and the IC50 (PIK3CB (Human)) was < 100 nM. The IC50 (PIK3CG (human)) was < 100 nM.
In the case of `OC1(c2cc3nc(-c4cccc5[nH]ncc45)nc(N4CCOCC4)c3s2)CCC1`, the IC50 (PIK3CD (Human)) is reported as > 100 nM, the IC50 (PIK3CA (human)) is reported as < 1000 nM and the IC50 (PIK3CB (Human)) is reported as > 100 nM. The IC50 (PIK3CG (human)) was < 100 nM.
For `c1ccc(-c2cc3nc(-c4cccc5[nH]ncc45)nc(N4CCOCC4)c3o2)cc1`, the IC50 (PIK3CD (Human)) was > 100 nM, the IC50 (PIK3CA (human)) was < 1000 nM and the IC50 (PIK3CB (Human)) was < 100 nM. For the same molecule, the IC50 (PIK3CG (human)) was > 100 nM.
For `c1cc2cc(-c3nc(N4CCOCC4)c4sc(-c5ccc(N6CCOCC6)nc5)cc4n3)cnc2[nH]1`, the IC50 (PIK3CD (Human)) was < 100 nM, the IC50 (PIK3CA (human)) was < 1000 nM and the IC50 (PIK3CB (Human)) was < 100 nM. For the same molecule, the IC50 (PIK3CG (human)) was < 100 nM.
For `NCC(=O)Nc1cccc(-c2cc3nc(-c4cccc5[nH]ncc45)nc(N4CCOCC4)c3s2)c1`, the IC50 (PIK3CD (Human)) was > 100 nM, the IC50 (PIK3CA (human)) was < 1000 nM and the IC50 (PIK3CB (Human)) was < 100 nM. The IC50 (PIK3CG (human)) was > 100 nM.
In the case of `Nc1nc(-c2cc3nc(-c4cnc5[nH]ccc5c4)nc(N4CCOCC4)c3s2)cs1`, the IC50 (PIK3CD (Human)) is reported as < 100 nM, the IC50 (PIK3CA (human)) is reported as < 1000 nM and the IC50 (PIK3CB (Human)) is reported as < 100 nM. The IC50 (PIK3CG (human)) was < 100 nM.
In the case of `CC(C)(NC(=O)c1ccccc1)c1cc2nc(-c3cccc4[nH]ncc34)nc(N3CCOCC3)c2s1`, the IC50 (PIK3CD (Human)) is reported as > 100 nM, the IC50 (PIK3CA (human)) is reported as < 1000 nM and the IC50 (PIK3CB (Human)) is reported as < 100 nM. For the same molecule, the IC50 (PIK3CG (human)) was < 100 nM.
With `O=C(NOCC1CC1)c1cc2nc(-c3cccc4[nH]ncc34)nc(N3CCOCC3)c2s1` the IC50 (PIK3CD (Human)) was > 100 nM, the IC50 (PIK3CA (human)) was < 1000 nM and the IC50 (PIK3CB (Human)) was > 100 nM. The IC50 (PIK3CG (human)) was < 100 nM.
In the case of `O=S(=O)(Nc1cccc(O)c1)c1cc2nc(-c3cccc4[nH]ncc34)nc(N3CCOCC3)c2s1`, the IC50 (PIK3CD (Human)) is reported as > 100 nM, the IC50 (PIK3CA (human)) is reported as < 1000 nM and the IC50 (PIK3CB (Human)) is reported as < 100 nM. For the same molecule, the IC50 (PIK3CG (human)) was < 100 nM.
